Some test systems named below: UACC-62; HCT-116; OVCAR-3; PC-3; HCT-15; HOP-92; RXF 393; OVCAR-8; COLO 205; NCI-H23; RPMI-8226; MDA-N; EKVX; SK-MEL-2; LOX IMVI; SF-539; Hs-578T; SNB-75; NCI-H522.
Experiment in all cases: NCI tumour cell line growth inhibition, 48 h

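Results reflect a 48-hour exposure of cells in 96-well plates to compound at five concentrations. GI50: concentration for 50% inhibition of growth.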 Activity calls are given as the source filed them. No stated cut-off is given here; in the data, active = GI50 up to about 1.1 µM and inactive = higher.

As for `CCOC(=O)c1c(C)[n+]([O-])c2cc(Cl)c(Cl)cc2[n+]1[O-]`, the GI50 in the experiment with UACC-62 was 15.8 µM (inactive); with HCT-116, 18.9 µM (inactive); in the experiment on OVCAR-3 it was 15.6 µM (inactive); with PC-3, 26.9 µM (inactive); in the experiment on HCT-15, 14.3 µM; in the experiment on HOP-92 it was 3.54 µM (inactive). The GI50 was 17.2 µM (inactive) with RXF 393; 19.7 µM (inactive) in the experiment on OVCAR-8; 19.7 µM (inactive) with COLO 205; 10.7 µM (inactive) with NCI-H23; 14.4 µM (inactive) in the experiment with RPMI-8226; 31 µM (inactive) with MDA-N. In addition, the GI50 with EKVX is 24.1 µM (inactive); in the experiment with SK-MEL-2 it was 23.3 µM (inactive); with LOX IMVI, 15.3 µM (inactive); with SF-539, 26.1 µM (inactive); in the experiment on Hs-578T, 24.1 µM (inactive).
Regarding `Oc1c(Br)cc(/C=C/c2ccnc(/C=C/c3cc(Br)c(O)c(Br)c3)c2)cc1Br`, the GI50 is 24.3 µM (inactive) in the experiment with UACC-62; 17 µM (inactive) in the experiment with HCT-116; 19.7 µM (inactive) in the experiment on OVCAR-3; 16.4 µM (inactive) in the experiment with PC-3; 23.6 µM in the experiment on HCT-15; 30.8 µM (inactive) with HOP-92. For the same compound, the GI50 in the experiment on OVCAR-8 is 26.8 µM (inactive); in the experiment on COLO 205, 27.4 µM (inactive); with RPMI-8226, 20.7 µM (inactive); in the experiment with SNB-75, 19.1 µM (inactive); in the experiment on MDA-N it was 33.5 µM (inactive); with EKVX it was 25.4 µM (inactive). The GI50 was 14.9 µM (inactive) in the experiment on SK-MEL-2, 29.2 µM (inactive) in the experiment on LOX IMVI, 18.5 µM (inactive) with SF-539 and 54.2 µM (inactive) in the experiment on Hs-578T.
Turning to `CCOC(=O)c1cc2cc(Cc3ccc4[nH]c(C(=O)OCC)cc4c3)ccc2[nH]1`, the GI50 with UACC-62 is 13.6 µM (inactive); in the experiment with HCT-116, 38.5 µM (inactive); with OVCAR-3 it was 73.6 µM (inactive); in the experiment on PC-3, 34.3 µM (inactive); in the experiment on HCT-15 it was above 100 µM; with HOP-92 it was 12.3 µM (inactive). Also, the GI50 was 9.18 µM (inactive) in the experiment with RXF 393; 5.94 µM (inactive) in the experiment with OVCAR-8; 47.3 µM (inactive) with COLO 205; 14.7 µM (inactive) in the experiment on NCI-H23; 28.6 µM (inactive) in the experiment on RPMI-8226; 12.2 µM (inactive) in the experiment with SNB-75. In addition, the GI50 is 84.1 µM (inactive) in the experiment on MDA-N; 21.5 µM (inactive) in the experiment on EKVX; 26.7 µM (inactive) in the experiment on SK-MEL-2; 38.7 µM (inactive) with LOX IMVI; 13.7 µM (inactive) in the experiment with SF-539; 12.6 µM (inactive) in the experiment on Hs-578T.
Take `Oc1c2cccc1Cc1cccc3c1OCCOCCOCCOCCOc1c(cccc1Cc1cccc(c1O)C3)C2`: the GI50 is 26.7 µM (inactive) in the experiment with UACC-62; 7.43 µM (inactive) in the experiment with HCT-116; 0.897 µM (active) with OVCAR-3; 17.1 µM (inactive) in the experiment on PC-3; above 100 µM with HCT-15; > 100 µM (inactive) in the experiment with HOP-92. For the same compound, the GI50 with RXF 393 is > 100 µM (inactive); in the experiment on OVCAR-8, 85.7 µM (inactive); in the experiment with COLO 205, > 100 µM (inactive); in the experiment on NCI-H23, > 100 µM (inactive); in the experiment on RPMI-8226, > 100 µM (inactive); with SNB-75, 22 µM (inactive). Moreover, the GI50 in the experiment on NCI-H522 is 18.5 µM (inactive); with EKVX, > 100 µM (inactive); with SK-MEL-2 it was > 100 µM (inactive); with LOX IMVI, > 100 µM (inactive); in the experiment with SF-539, 94.6 µM (inactive); with Hs-578T, 18.4 µM (inactive).
As for `Cc1cnc(-c2c[nH]c3ccccc23)nc1-c1c[nH]c2ccccc12`, the GI50 in the experiment on UACC-62 is 4.27 µM (inactive); in the experiment with HCT-116, 4.56 µM (inactive); in the experiment on OVCAR-3, 8.13 µM (inactive); in the experiment with PC-3 it was 3.49 µM (inactive); in the experiment on HCT-15 it was 5.81 µM; in the experiment on HOP-92 it was 2.03 µM (inactive). The GI50 with OVCAR-8 is 6.08 µM (inactive); in the experiment on COLO 205 it was 4.58 µM (inactive); in the experiment with RPMI-8226 it was 3.9 µM (inactive); in the experiment on SNB-75 it was 2.39 µM (inactive); with MDA-N it was 4.2 µM (inactive); with EKVX, 6.21 µM (inactive). The GI50 in the experiment with SK-MEL-2 is 6.44 µM (inactive); with LOX IMVI, 3.62 µM (inactive); with SF-539, 11.7 µM (inactive); in the experiment on Hs-578T it was 17.9 µM (inactive).
For the compound `COC(=O)c1c(O)ccc2c1c1c(n2Cc2ccccc2OC)C(=O)c2ccccc2C1`, the GI50 in the experiment with UACC-62 is 76.4 µM (inactive); with HCT-116, 27.8 µM (inactive); with OVCAR-3 it was 88.7 µM (inactive); with PC-3 it was 24 µM (inactive); in the experiment on HCT-15, 63.4 µM; in the experiment on RXF 393 it was 26.5 µM (inactive). Besides, the GI50 in the experiment on OVCAR-8 is 91.2 µM (inactive); in the experiment on COLO 205, 15.5 µM (inactive); in the experiment on NCI-H23, 74.8 µM (inactive); in the experiment on RPMI-8226, 22.4 µM (inactive); in the experiment on SNB-75 it was 61.9 µM (inactive); with MDA-N, 77.1 µM (inactive). The GI50 in the experiment with SK-MEL-2 was 87.5 µM (inactive); with LOX IMVI, 47.2 µM (inactive); in the experiment on SF-539, 63.8 µM (inactive); with Hs-578T it was > 100 µM (inactive).
Regarding `N#Cc1nc2cc(Cl)ccc2nc1N1CCN(c2ccc([N+](=O)[O-])cc2)CC1`, the GI50 in the experiment with UACC-62 was > 100 µM (inactive); with HCT-116, > 100 µM (inactive); in the experiment with OVCAR-3 it was > 100 µM (inactive); with PC-3, > 100 µM (inactive); in the experiment with HCT-15 it was above 100 µM; in the experiment with RXF 393, > 100 µM (inactive). In addition, the GI50 in the experiment with OVCAR-8, with COLO 205, in the experiment with NCI-H23, with RPMI-8226, in the experiment on SNB-75 and in the experiment with MDA-N was > 100 µM (inactive) in each case. For the same compound, the GI50 in the experiment with EKVX, in the experiment on SF-539 and in the experiment with Hs-578T was > 100 µM (inactive) throughout.
As for `COc1ccc(C(=O)/C=C/c2ccc(OCCCCCCCCCCOc3ccc(/C=C/C(=O)c4ccc(OC)c(OC)c4)cc3)cc2)c(OC)c1`, the GI50 is > 100 µM (inactive) in the experiment on UACC-62; > 100 µM (inactive) in the experiment on HCT-116; > 100 µM (inactive) in the experiment with PC-3; above 100 µM in the experiment on HCT-15; > 100 µM (inactive) in the experiment on RXF 393; > 100 µM (inactive) in the experiment with OVCAR-8. The GI50 in the experiment with COLO 205, in the experiment with RPMI-8226, in the experiment on SNB-75, with MDA-N, in the experiment with EKVX and in the experiment on SK-MEL-2 was > 100 µM (inactive) in each case. In addition, the GI50 is > 100 µM (inactive) in the experiment on SF-539 and 76 µM (inactive) with Hs-578T.
Turning to `CSC(SC)=C(C#N)C(=O)Nc1ccc(Cl)cc1`, the GI50 with UACC-62 was 46 µM (inactive); in the experiment on HCT-116, 29.1 µM (inactive); in the experiment with OVCAR-3, > 100 µM (inactive); in the experiment with PC-3, 54.2 µM (inactive); with HCT-15 it was 33.2 µM; with RXF 393, 19.8 µM (inactive). Besides, the GI50 in the experiment on OVCAR-8 was 52.8 µM (inactive); in the experiment on COLO 205, 18.3 µM (inactive); in the experiment on NCI-H23, 30.2 µM (inactive); with RPMI-8226, 26.4 µM (inactive); with SNB-75, 95.3 µM (inactive); in the experiment on MDA-N, 74.6 µM (inactive). For the same compound, the GI50 is 44.7 µM (inactive) in the experiment on EKVX; > 100 µM (inactive) in the experiment with SK-MEL-2; 23.1 µM (inactive) with LOX IMVI; 27.7 µM (inactive) in the experiment with SF-539; > 100 µM (inactive) with Hs-578T.
As to `O=[N+]([O-])c1ccc(/C=C(/c2ccc([N+](=O)[O-])o2)S(=O)(=O)c2ccccc2)cc1`, the GI50 was 22.2 µM (inactive) in the experiment with UACC-62; 30.9 µM (inactive) with HCT-116; 97.9 µM (inactive) in the experiment on OVCAR-3; > 100 µM (inactive) in the experiment with PC-3; 26.9 µM in the experiment on HCT-15; > 100 µM (inactive) with HOP-92. In addition, the GI50 with RXF 393 is > 100 µM (inactive); in the experiment with OVCAR-8 it was 29.4 µM (inactive); with COLO 205 it was 47.6 µM (inactive); in the experiment on NCI-H23, 59 µM (inactive); with RPMI-8226, 13.7 µM (inactive); in the experiment with SNB-75 it was > 100 µM (inactive). Moreover, the GI50 in the experiment on NCI-H522 is 39.4 µM (inactive); with SK-MEL-2, > 100 µM (inactive); in the experiment on SF-539, 33.7 µM (inactive); in the experiment on Hs-578T it was 26.1 µM (inactive).
Regarding `C#CC(C)(C)OC(=O)C(=[N+]=[N-])C(C)=O`, the GI50 in the experiment with UACC-62 is > 10 µM (inactive); with HCT-116, > 10 µM (inactive); with OVCAR-3 it was > 10 µM (inactive); in the experiment on PC-3 it was > 10 µM (inactive); with HCT-15 it was above 10 µM; in the experiment on HOP-92, > 10 µM (inactive). For the same compound, the GI50 in the experiment with RXF 393, with OVCAR-8, in the experiment with NCI-H23, in the experiment on RPMI-8226, in the experiment on SNB-75 and with MDA-N was > 10 µM (inactive) each time. Besides, the GI50 in the experiment on EKVX, with SK-MEL-2, with LOX IMVI, with SF-539 and with Hs-578T was > 10 µM (inactive) in each case.
On to `CC(C)(C)c1ccc(OC(=O)Nc2ccc(O)c(C(=O)O)c2)cc1`, for which the GI50 with UACC-62 was > 100 µM (inactive); with HCT-116 it was > 100 µM (inactive); with OVCAR-3 it was > 100 µM (inactive); in the experiment on PC-3, > 100 µM (inactive); with HCT-15, above 100 µM; in the experiment on HOP-92, > 100 µM (inactive). Further, the GI50 in the experiment on RXF 393, in the experiment on OVCAR-8, in the experiment on COLO 205, in the experiment with NCI-H23, with RPMI-8226 and with SNB-75 was > 100 µM (inactive) in each case. Further, the GI50 in the experiment on NCI-H522, with EKVX, in the experiment with SK-MEL-2, with LOX IMVI, in the experiment with SF-539 and in the experiment with Hs-578T was > 100 µM (inactive) each time.

The record behind these values is ChEMBL document CHEMBL1201862, “PubChem BioAssay data set” (2004).
